Data published in article PMC7999199, “Novel Cationic Meso-Arylporphyrins and Their Antiviral Activity against HSV-1” (Pharmaceuticals, 2021).

Key:
HSV-1 (strain RD) = assay: Virucidal effect on HSV-1: virus incubated 2 h with compound, residual titer by CPE in Vero cells; type: cell-based, herpes simplex virus type 1; conditions: for IC50: Human alphaherpesvirus 1, Vero, HSV-1
Protocol: Next, the virucidal effect of the drugs on HSV-1 in PBS and Pluronic F-127 was studied, in accordance with CC50 (Figure 5). The virucidal activity tests were performed by incubating HSV-1 with different concentrations of 3a,b and TMePyP for 2 h at a temperature of 36.8 °C and 5% CO2. Untreated viral suspensions were used as a control. Then, samples were added to a Vero culture seeded in 96-well plates, and the residual virus content was evaluated by developing a cytopathic effect on the fourth day of cultivation.
HSV-1 at tenfold dilutions DMEM-1% FCS (900 µL) was incubated with different concentration of the compounds (100 µL) at the final concentration ranging from 3 µM to 100 µM in DMEM-1% FCS or without of compound, each sample in volume 1 mL, for 2 h at 36.8 °C in 5% CO2 atmosphere. After treatment, the samples were applied to the Vero cell (the day before, cells were seeded at the rate of 15,000 cells/well in […] DMEM-5% FCS in 96-well plates) monolayers in 96-well plates (100 µL/well), and, after 4 days of cultivation at 36.8 °C in 5% CO2 atmosphere, titers were calculated based on the development of CPE, and the inhibitory activity of each compounds was calculated in relation to the control (HSV-1 without compounds). Data are reported as means of three independent assays, each run in triplicate.
Figure 5 Virucidal activity of 3a (a), 3b (b), TMePyP (c) dissolved in PBS and Pluronic F-127 regarding HSV-1. The results are presented as the virus titer percentage, with the porphyrin regarding the virus titer in control, which was taken as 100%. Each point represents the mean ± deviation of three experiments with three replicates.
Fig. 15S. Virucidal activity of 3a (A), 3b (B), TMePyP (C) compounds dissolved in PBS and Pluronic F127 regarding to HSV-1. HSV-1 at tenfold dilutions DMEM-1%FCS was incubated with different concentration of the compounds ranging from 3 µM/L to 100 µM/L in DMEM-1% FCS or without of compound , each sample in volume 1mL, for 2 hours at 36.8°C in 5% CO 2 atmosphere. After treatment the samples were applied to the Vero DMEM-5%FCS in 96 wells plates) monolayers in 96 wells plates (100 µL/well). and after 4 days of cultivation at 36.8 °C in 5% CO 2 atmosphere titers were calculated based on the development of CPE and the inhibi-tory activity of each compounds was calculated in relation to the control (HSV -1 without compounds). Data are reported as means of three independent assays, each run in tripli cate. The results were processed using the GraphPad Prism 5 program. […]

[1] = test system: HSV-1 replication in Vero cells; assay: Influence of the compounds on HSV-1 virus yield during infection of Vero cells (early/late replication stages); type: cell-based, herpes simplex virus type 1; conditions: for stages of HSV-1 replication affected: Vero cells, MOI 0.1; for effect on HSV-1 replication: simultaneous addition with the virus
Protocol: Porphyrin’s antiviral action was then determined in terms of their effect on the HSV-1 replication stages in Vero cells. A two-part experiment was conducted to evaluate the influence of the obtained compounds on the early or late stages of replication (Figure 6). First, the effect of porphyrins on the initial stages of reproduction was estimated. Thus, HSV-1 at MOI 0.1 was adsorbed on Vero cells in a medium containing the studied porphyrin; then the cell monolayers were washed from the nonadsorbed virus, and porphyrins of the same concentration were introduced into the plate (1) (Vero Cells + HSV-1 + Porphyrin, left arrow. Figure 6), or the cell monolayers were washed from the nonadsorbed virus, and the medium without the test compound was introduced into the cell monolayers microwell plate (2) (Porphyrin + HSV-1 + Porphyrin medium, right arrow. Figure 6).
The influence of porphyrin antiviral activity on the HSV-1 postadsorption stages was simultaneously evaluated in this experiment. The studied compounds were introduced after HSV-1 adsorption on Vero cells and washing of nonadsorbed virus particles (3) (Vero Cells +HSV-1, left arrow. Figure 6) or, after virus adsorption and nonadsorbed virus particles washing, only the medium was introduced (control of virus reproduction) (4) (Vero Cells +HSV-1, right arrow. Figure 6). After the formation of a pronounced cytopathic effect of the virus in control cultures (48 h of cultivation), the virus infection activity of all the samples was determined by titration in a Vero cell culture (Figure 7).
Four variants were used to test compound efficiency in controlling development of infection in Vero cells. The Vero cells were seeded in 24-well plate in 1 mL of DMEM-5% FCS. (1) The cell monolayers were treated simultaneously with HSV-1 (MOI 0.1) in DMEM-1% FCS (900 µL) and investigated compounds in DMEM-1% FCS (100 µL) for 2 h at 36.8 °C in 5% CO2 atmosphere; then the cell monolayers were washed from the nonadsorbed virus and treated with 900 µL of DMEM-1%FCS and the same concentrations of compounds (100 µL). (2) The cell monolayers were treated simultaneously with HSV-1 (MOI 0.1) DMEM-1% FCS (900 µL) and compounds DMEM-1%FCS (100 µL) for 2 h at 36.8 °C in 5% CO2 atmosphere, and then the cell monolayers were washed from the nonadsorbed virus, after which only DMEM-1% FCS (1 mL) was added. (3) The cell monolayers were treated with HSV-1 (MOI 0.1) DMEM-1% FCS (900 µL) and DMEM-1% FCS (100 µL) for 2 h at 36.8 °C in 5% CO2 atmosphere and washed from the nonadsorbed virus; then DMEM-1% FCS (900 µL) and the same compounds in DMEM-1% FCS (100 µL) were added. (4) Control: the cell monolayers were treated with HSV-1 (MOI 0.1) in DMEM-1% FCS (900 µL), and DMEM-1% FCS (100 µL) was added for 2 h at 36.8 °C in 5% CO2 atmosphere and washed from the nonadsorbed virus, and then DMEM-1% FCS (1 mL) was added. In all variants, the treated cells were then incubated at 36.8 °C in 5% CO2 atmosphere.
After the development of a cytopathic effect in control cultures (HSV-1 + medium, 48 h), the virus content was determined in samples of the culture medium by applying ten-fold dilutions (100 µL) on a monolayers of Vero cells in wells of 96-well plates. After three days, virus titers were counted, and the percentage of inhibition regarding the titer of the virus in the control, which was taken as 100%, was determined. The results were presented as the average of three experiments of four replays.
Figure 7 Inhibitory effect of porphyrins on the HSV-1 replication. The Vero cells were treated with compounds 3a (100 µM) (a), 3b (12 µM and 6 µM) (b) and TMePyP (50 µM, 25 µM and 12.5 µM) (c) simultaneously with HSV-1 (MI 0.1) or after HSV-1 (MI 0.1) adsorption. The results are presented as the percentage of the virus titer with porphyrin relative to its titer in the control (without porphyrin), which was taken as 100%. Each bar represents the mean ± deviation. […]

[2] = Pluronic F-127 (F127) micellar formulation

| SMILES | IC50 (HSV-1 (strain RD); [2]) [µM] | IC50 (HSV-1 (strain RD); dissolved in PBS) [µM] | stages of HSV-1 replication affected [1] | effect on HSV-1 reproduction ([1]; introduced at the stage of virus adsorption, 12 μM) | effect on HSV-1 replication ([1]; 25 μM) | effect on HSV-1 replication ([1]; 50 μM) | concentration showing a virucidal effect (HSV-1 (strain RD); PBS and Pluronic F-127, only at the maximum concentration) [µM] | effect on HSV-1 reproduction ([1]; compound only at the cell infection stage (3a + HSV-1 + media), 100 µM, MOI 0.1, 48 h) | effect on HSV-1 reproduction ([1]; compound with virus and after washing (3a + HSV-1 + 3a) or post-infection (HSV-1 + 3a), 100 µM, MOI 0.1, 48 h) |
| --- | --- | --- | --- | --- | --- | --- | --- | --- | --- |
| C[n+]1ccc(-c2c3nc(c(-c4cc[n+](C)cc4)c4ccc([nH]4)c(-c4cc[n+](C)cc4)c4nc(c(-c5cc[n+](C)cc5)c5ccc2[nH]5)C=C4)C=C3)cc1 [TMePyP, 5,10,15,20-tetrakis(1-methyl-4-pyridinio)porphyrin tetraiodide, reference compound] | 13.3 | 2.3 | affected both the initial and late stages of virus replication | did not suppress the HSV-1 reproduction | completely suppressed its replication | completely suppressed its replication |  |  |  |
| O=C(CC[n+]1ccccc1)Oc1ccc(-c2c3nc(c(-c4ccc(OC(=O)CC[n+]5ccccc5)cc4)c4ccc([nH]4)c(-c4ccc(OC(=O)CC[n+]5ccccc5)cc4)c4nc(c(-c5ccc(OC(=O)CC[n+]6ccccc6)cc5)c5ccc2[nH]5)C=C4)C=C3)cc1 [3a] | 99.8 |  | acts on both the initial and postadsorption stages of virus replication |  |  |  | 100 | did not significantly suppress the reproduction of the virus | suppressed the reproduction of the virus |
